This note sets out measurements from patent US10167299B2, “1-(3-aminopropyl) substituted cyclic amine compounds, preparation method therefor, and pharmaceutical compositions and uses thereof” (SHANGHAI INSTITUTE OF MATERIA MEDICA, CHINESE ACADEMY OF …, priority 2013, dated 2019).

Usually pIC50 stands for the negative decadic logarithm of the IC50, by convention in mol/L.

pIC50: −log10 of the molar value. Like-named read-outs stand apart in the source and are kept apart here.

For this assay, the target named is CCR5 (Homo sapiens (Human), UniProt P51681). In words: Calcium flux inhibition experiment. The assay is classed as cell-based. The conditions noted are these: for calcium influx inhibition effect in words, versus positive control compounds: conclusion from Table 1. The source says:
Experiment apparatus: FlexStation II
Experiment materials: HEK293/CCR5-Gα16 cell line, Fluo-4calcium dye (fluorescent-4 calcium ion dye) and FlexStation instrument.
Experiment theory: Activation of the receptor can cause the activation of Gα16 protein, thereby activating phospholipase C (PLC) to generate IP3 and DAG by establishing CCR5 and Ga16 co-transfected cell line. IP3 can bind to IP3 receptors on the endoplasmic reticulum and mitochondria in a cell, which can cause the release of intracellular calcium. Thus, determination of changes in intracellular calcium can be used as a method to detect CCR5 activation state. Fluo-4/AM is a fluorescent probe indicator for calcium used to measure calcium ion. As a non-polar lipid-soluble compound, after it enters into cells, AM group is dissociated to release Fluo-4 under the effect of cell lipolysis enzyme. Fluo-4 is a polar molecule and not easy to go through the lipid bilayer membrane, therefore it can stay within the cells for a long time. Ultimately, the level of activated Ga protein can be reflected by measuring the excited fluorescence intensity. If the screened compound can activate CCR5, it can greatly increase the calcium flux reaction; on the contrary, if the screened compound can antagonize CCR5, it can greatly reduce calcium flux reaction.
1. HEK293 cells which can stably express CCR5 were inoculated in a 96-well plate and incubated overnight.
2. The medium in each well into which cells were innoculated was removed and 40 μl/well of freshly prepared dye was added. The plate was placed in a 37° C. incubator and incubated for 40 minutes at constant temperature.
3. The medicament to be determined was diluted with calcium buffer to eight concentration gradients, which is 1×10^−4 M, 1×10^−5 M, 1×10^−6 M, 1×10^−7 M, 1×10^−8 M, 1×10^−9 M, 1×10^−10 M, and 1×10^−11 M, respectively, and homogeneously mixed.
4. The dye was removed. Freshly prepared calcium buffer was used to wash for one time, 50 μl of calcium buffer was added.
5. FlexStation II was used for detection. 25 μl of calcium buffer containing the medicament to be determined was added automatically from the 15th second.

Where [1] appears, read: HEK293/CCR5-Gα16 cell line, calcium flux, read-out: CCR5 IC50.

Chain of CCR5 (P51681 whole entry): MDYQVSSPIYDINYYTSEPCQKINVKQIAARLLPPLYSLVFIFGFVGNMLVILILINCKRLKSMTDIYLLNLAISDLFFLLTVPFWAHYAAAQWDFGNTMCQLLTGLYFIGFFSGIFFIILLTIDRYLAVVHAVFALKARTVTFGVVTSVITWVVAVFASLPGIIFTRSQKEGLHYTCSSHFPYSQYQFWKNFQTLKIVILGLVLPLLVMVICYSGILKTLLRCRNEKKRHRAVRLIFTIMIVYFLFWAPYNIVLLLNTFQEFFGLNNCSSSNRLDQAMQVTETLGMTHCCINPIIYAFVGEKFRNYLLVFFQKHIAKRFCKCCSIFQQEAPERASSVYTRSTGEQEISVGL

For `CC(=O)N[C@@H](CCN1C2CCC1CC(n1c(C)nc3c1CCN(C(C)=O)C3)C2)c1ccc(C#N)s1` (stereo partly drawn) [Compound 144, N-{(1S)-3-[(3-endo)-3-(5-acetyl-2-methyl-4,5,6,7-tetrahydro-1H-imidazo[4,5-c]pyridin-1-yl)-8-azabicyclo[3.2.1]octane-8-yl]-1-(5-cyanothiophen-2-yl)-propyl}acetamide], the pIC50 under setting [1] is 8.07.
On to `CC(=O)N[C@@H](CCN1C2CCC1CC(n1c(C)nc3c1CCN(C(=O)C(C)C)C3)C2)c1cc(C)cs1` (stereo partly drawn) [Compound 145, N-{(1S)-3-[(3-endo)-3-(5-isobutyryl-2-methyl-4,5,6,7-tetrahydro-1H-imidazo[4,5-c]pyridin-1-yl)-8-azabicyclo[3.2.1]octane-8-yl]-1-(4-methylthiophen-2-yl)-propyl}acetamide], for which the pIC50 under setting [1] is 7.88.
Take `Cc1nnc(C(C)C)n1C1CC2CCC(C1)N2CC[C@H](NC(=O)C1CCN(S(C)(=O)=O)CC1)c1cccs1` (stereo partly drawn) [Compound 146, N-[(1S)-3-[exo-3-(3-isopropyl-5-methyl-4H-1,2,4-triazol-4-yl)-8-azabicyclo[3.2.1]octane-8-yl]-1-(thiophen-2-yl)propyl]-1-methylsulfonylpiperidine-4-carboxamide]: the “calcium influx inhibition effect in words, versus positive control compounds” value was “better than the positive control compounds”. For the same compound, the pIC50 under setting [1] was 8.76.
For `Cc1ccc([C@H](CCN2C3CCC2CC(n2c(C)nnc2C(C)C)C3)NC(=O)C2CCN(S(C)(=O)=O)CC2)s1` (stereo partly drawn) [Compound 147] the same measures were “better than the positive control compounds” and 8.61.
For `COc1ccc([C@H](CCN2C3CCC2CC(n2c(C)nnc2C(C)C)C3)NC(=O)C2CCN(S(C)(=O)=O)CC2)s1` (stereo partly drawn) [Compound 148, N-[(1S)-3-[exo-3-(3-isopropyl-5-methyl-4H-1,2,4-triazol-4-yl)-8-azabicyclo[3.2.1]octane-8-yl]-1-(5-methoxythiophen-2-yl)propyl]-1-methylsulfonylpiperidine-4-carboxamide] the same measures were “better than the positive control compounds” and 8.47.
Take `Cc1nnc(C(C)C)n1C1CC2CCC(C1)N2CC[C@H](NC(=O)C1CCN(S(C)(=O)=O)CC1)c1ccc(C#N)s1` (stereo partly drawn) [Compound 149, N-[(1S)-3-[exo-3-(3-isopropyl-5-methyl-4H-1,2,4-triazol-4-yl)-8-azabicyclo[3.2.1]octane-8-yl]-1-(5-cyanothiophen-2-yl)propyl]-1-methylsulfonylpiperidine-4-carboxamide]: the pIC50 is 8.10 and the “calcium influx inhibition effect in words, versus positive control compounds” value is “comparable to the positive control compounds”.
Consider `Cc1nnc(C(C)C)n1C1CC2CCC(C1)N2CC[C@H](NC(=O)C1CCN(S(C)(=O)=O)CC1)c1ccc(Cl)s1` (stereo partly drawn) [Compound 150, N-[(1S)-3-[exo-3-(3-isopropyl-5-methyl-4H-1,2,4-triazol-4-yl)-8-azabicyclo[3.2.1]octane-8-yl]-1-(5-chlorothiophen-2-yl)propyl]-1-methylsulfonylpiperidine-4-carboxamide], for which the “calcium influx inhibition effect in words, versus positive control compounds” value is given as “better than the positive control compounds”. The negative-log IC50 (pIC50) under setting [1] is 8.65.
With `Cc1nnc(C(C)C)n1C1CC2CCC(C1)N2CC[C@H](NC(=O)C1CCN(S(C)(=O)=O)CC1)c1ccc(F)s1` (stereo partly drawn) [Compound 151, N-[(1S)-3-[exo-3-(3-isopropyl-5-methyl-4H-1,2,4-triazol-4-yl)-8-azabicyclo[3.2.1]octane-8-yl]-1-(5-fluorothiophen-2-yl)propyl]-1-methylsulfonylpiperidine-4-carboxamide], the “calcium influx inhibition effect in words, versus positive control compounds” value is reported as “better than the positive control compounds”. For the same compound, the negative-log IC50 (pIC50) under setting [1] is 8.46.
For `Cc1nnc(C(C)C)n1C1CC2CCC(C1)N2CC[C@H](NC(=O)Cn1ncnn1)c1cccs1` (stereo partly drawn) [Compound 152, N-[(1S)-3-[exo-3-(3-isopropyl-5-methyl-4H-1,2,4-triazol-4-yl)-8-azabicyclo[3.2.1]octane-8-yl]-1-(thiophen-2-yl)propyl]-2-(2H-tetrazol-2-yl)acetamide] the same measures were “comparable to the positive control compounds” and 8.10.
Turning to `Cc1ccc([C@H](CCN2C3CCC2CC(n2c(C)nnc2C(C)C)C3)NC(=O)Cn2ncnn2)s1` (stereo partly drawn) [Compound 153, N-[(1S)-3-[exo-3-(3-isopropyl-5-methyl-4H-1,2,4-triazol-4-yl)-8-azabicyclo[3.2.1]octane-8-yl]-1-(5-methylthiophen-2-yl)propyl]-2-(2H-tetrazol-2-yl)acetamide], the pIC50 under setting [1] is 7.87.
In the case of `COc1ccc([C@H](CCN2C3CCC2CC(n2c(C)nnc2C(C)C)C3)NC(=O)Cn2ncnn2)s1` (stereo partly drawn) [Compound 154], the pIC50 is 7.64.
In the case of `Cc1nnc(C(C)C)n1C1CC2CCC(C1)N2CC[C@H](NC(=O)Cn1ncnn1)c1ccc(C#N)s1` (stereo partly drawn) [Compound 155, N-[(1S)-3-[exo-3-(3-isopropyl-5-methyl-4H-1,2,4-triazol-4-yl)-8-azabicyclo[3.2.1]octane-8-yl]-1-(5-cyanothiophen-2-yl)propyl]-2-(2H-tetrazol-2-yl)acetamide], the pIC50 is 8.08 and the “calcium influx inhibition effect in words, versus positive control compounds” value is given as “comparable to the positive control compounds”.
As for `Cc1nnc(C(C)C)n1C1CC2CCC(C1)N2CC[C@H](NC(=O)Cn1ncnn1)c1ccc(Cl)s1` (stereo partly drawn) [Compound 156, N-[(1S)-3-[exo-3-(3-isopropyl-5-methyl-4H-1,2,4-triazol-4-yl)-8-azabicyclo[3.2.1]octane-8-yl]-1-(5-chlorothiophen-2-yl)propyl]-2-(2H-tetrazol-2-yl)acetamide], the “calcium influx inhibition effect in words, versus positive control compounds” value is “comparable to the positive control compounds”. For the same compound, the pIC50 under setting [1] was 8.01.
Consider `Cc1nnc(C(C)C)n1C1CC2CCC(C1)N2CC[C@H](NC(=O)Cn1ncnn1)c1ccc(F)s1` (stereo partly drawn) [Compound 157, N-[(1S)-3-[exo-3-(3-isopropyl-5-methyl-4H-1,2,4-triazol-4-yl)-8-azabicyclo[3.2.1]octane-8-yl]-1-(5-fluorothiophen-2-yl)propyl]-2-(2H-tetrazol-2-yl)acetamide], for which the “calcium influx inhibition effect in words, versus positive control compounds” value is reported as “better than the positive control compounds”. Besides, under setting [1], the pIC50 was 8.91.
As for `Cc1nnc(C(C)C)n1C1CC2CCC(C1)N2CC[C@H](NC(=O)Cc1nnn[nH]1)c1cccs1` (stereo partly drawn) [Compound 158, N-[(1S)-3-[exo-3-(3-isopropyl-5-methyl-4H-1,2,4-triazol-4-yl)-8-azabicyclo[3.2.1]octane-8-yl]-1-(thiophen-2-yl)propyl]-2-(1H-tetrazol-5-yl)acetamide], the pIC50 under setting [1] was 7.83.
Regarding `Cc1ccc([C@H](CCN2C3CCC2CC(n2c(C)nnc2C(C)C)C3)NC(=O)Cc2nnn[nH]2)s1` (stereo partly drawn) [Compound 159, N-[(1S)-3-[exo-3-(3-isopropyl-5-methyl-4H-1,2,4-triazol-4-yl)-8-azabicyclo[3.2.1]octane-8-yl]-1-(5-methylthiophen-2-yl)propyl]-2-(1H-tetrazol-5-yl)acetamide], the “calcium influx inhibition effect in words, versus positive control compounds” value is “comparable to the positive control compounds”. For the same compound, the pIC50 under setting [1] was 8.06.
Turning to `COc1ccc([C@H](CCN2C3CCC2CC(n2c(C)nnc2C(C)C)C3)NC(=O)Cc2nnn[nH]2)s1` (stereo partly drawn) [Compound 160, N-[(1S)-3-[exo-3-(3-isopropyl-5-methyl-4H-1,2,4-triazol-4-yl)-8-azabicyclo[3.2.1]octane-8-yl]-1-(5-methoxythiophen-2-yl)propyl]-2-(1H-tetrazol-5-yl)acetamide], the pIC50 is 8.87 and the “calcium influx inhibition effect in words, versus positive control compounds” value was “better than the positive control compounds”.
As to `Cc1nnc(C(C)C)n1C1CC2CCC(C1)N2CC[C@H](NC(=O)Cc1nnn[nH]1)c1ccc(C#N)s1` (stereo partly drawn) [Compound 161, N-[(1S)-3-[exo-3-(3-isopropyl-5-methyl-4H-1,2,4-triazol-4-yl)-8-azabicyclo[3.2.1]octane-8-yl]-1-(5-cyanothiophen-2-yl)propyl]-2-(1H-tetrazol-5-yl)acetamide], the pIC50 is 8.08 and the “calcium influx inhibition effect in words, versus positive control compounds” value was “comparable to the positive control compounds”.
For the compound `Cc1nnc(C(C)C)n1C1CC2CCC(C1)N2CC[C@H](NC(=O)Cc1nnn[nH]1)c1ccc(Cl)s1` (stereo partly drawn) [Compound 162, N-[(1S)-3-[exo-3-(3-isopropyl-5-methyl-4H-1,2,4-triazol-4-yl)-8-azabicyclo[3.2.1]octane-8-yl]-1-(5-chlorothiophen-2-yl)propyl]-2-(1H-tetrazol-5-yl)acetamide], the “calcium influx inhibition effect in words, versus positive control compounds” value is “better than the positive control compounds”. Moreover, the pIC50 under setting [1] was 8.73.
